“Also recorded” adds a separate entry of the source. Bounds are passed on as bounds.

One series concerns Melanocytes 1. Description: Toxicity via ATP-based assay (Cell titer glow). Particulars: ATP-based assay 2 days after start of treatment. How it is done: (§1) Three different NNT inhibitors were tested for efficacy and toxicity in melanocytes and melanoma cells. […] Toxicity measured via ATP-based assays (Cell titer glow) 2 days after start of treatment.
The next series deals with Melanocytes 2. In words: Toxicity via ATP-based assay (Cell titer glow). Particulars: ATP-based assay 2 days after start of treatment. How it is done: as §1
The subject of the next series is Dermal Fibroblasts. In words: Toxicity via ATP-based assay (Cell titer glow). As to conditions: ATP-based assay 2 days after start of treatment.
A further series deals with Keratinocytes. Description: Toxicity via ATP-based assay (Cell titer glow). As to conditions: ATP-based assay 2 days after start of treatment.
Series [1] has as its system human skin explants. Description: Pigmentation of human skin explants treated topically or intradermally with NNT inhibitors (visual inspection, colorimeter, Fontana-Masson staining). The series is classed as cell-based. Particulars: for human skin pigmentation (darkening): daily application for 5 days; for microscopic pigmentation / eumelanin, Fontana-Masson staining: 50 mM, once per day for 5 consecutive days. The method, then:
Human skin explants obtained from subjects undergoing abdominoplasty were defatted and grown on 2% agar plates for 10 days. These explants were treated topically or intradermally with NNT inhibitors. […]
In addition, skin patches (Fitzpatrick Type II) were topically treated for 4 days with 2,3 butane-dione at the following concentrations: 0.4% w/v (˜47 mM), 0.8% w/v, 1.6% w/v, 3.12% w/v, 6.25% w/v, 12.5% w/v, and 25% w/v.

A further series has as its system UACC257 melanoma cells. In words: GSH/GSSG measurements after DCC treatment. The series is classed as cell-based, human. As to conditions: 3 days after DCC treatment. How it is done:
(§2) FIGS. 7A-7C show GSH/GSSG ratios 3 days after N,N-Dicyclohexylcarbodiimide (DCC) treatment. To confirm the observation by Moody et al. (Biochem J., 1983) that DCC and Butanedione inhibit NNT enzyme activity, GSH/GSSG measurements were performed in human melanoma and primary melanocytes. […] FIG. 7A, GSH and GSSG measurements in UACC257 melanoma cells. FIG. 7B, GSH and GSSG measurements in primary melanocytes (PM) WM26 cells. FIG. 7C, GSH/GSSG ratios of UACC257 melanoma and […] primary melanocytes. *, indicates significant differences (p<0.05).
(§3) In one embodiment GSH/GSSG ratios are determined using the GSH/GSSG-GLO assay commercially available from PROMEGA.

Series [2] has as its system primary melanocytes (PM) WM26 cells. Description: GSH/GSSG measurements after DCC treatment. The series is classed as cell-based, human. Particulars: primary melanocytes WM26, 3 days after DCC treatment. How it is done: as §2, §3
Another series concerns UACC 257 melanoma. Description: BrdU ELISA toxicity. It is filed as cell-based, human. As to conditions: 3 days after treatment. How it is done:
(§4) FIGS. 8A-8B show BrdU ELISA data 3 days after DCC treatment.
(§5) In one embodiment, the viability of a cell or the proliferation of a cell is determined using a bromodeoxyuridine (BrdU) assay. BrdU is a synthetic analog of thymidine that is commonly used in the detection of proliferating cells in living tissues. BrdU can be incorporated into the newly synthesized DNA of replicating cells (during the S phase of the cell cycle), substituting for thymidine during DNA replication. Antibodies specific for BrdU can then be used to detect the incorporated chemical, thus indicating cells that were actively replicating their DNA. BrdU assays are well known to those of skill in the art and are not described in detail herein. In some embodiments, an ATP=based measurement can be used (e.g., Cell Titer Glow™).

The subject of the next series is WM26 primary melanocytes. Description: BrdU ELISA toxicity. As to conditions: 3 days after treatment. The series is classed as cell-based, human. The method, then:
as §4, §5

Another series relates to Melan-A cells. Description: Measurement of eumelanin in murine melanocytes. It is filed as cell-based.
The test system of another series is human skin. Description: Cyclobutane dimer (CPD) staining of treated human skin, DNA damage. The series is classed as cell-based. Particulars: 50 mM once per day for 5 days; for CPD formation after UVB irradiation: then 1000 mJ/cm^2 UVB, vs DMSO+UVB control. The method, then: Cyclobutane dimer (CPD) staining was performed on human skin treated with 50 mM 2,3butanedione for 5 consecutive days (treatment once per day) as a marker to assess DNA damage in the skin samples. On the fifth day, skin was irradiated with 1000 mJ/cm^2 UVB (equivalent to approximately 3 h in the sun at equatorial areas).

Series [3] deals with human skin explants. In words: H&E staining of treated skin samples (inflammation, skin damage). It is filed as cell-based. As to conditions: 50 mM, skin patches.

Turning to `C(=NC1CCCCC1)=NC1CCCCC1` [DCC, N,N-Dicyclohexylcarbodiimide], the IC50 in the series with Melanocytes 1, in the series on Melanocytes 2, in the series with Dermal Fibroblasts and in the series on Keratinocytes was above 10 µM in each case. The “human skin pigmentation (darkening)” value with human skin explants [1] (topical, human skin explants) is recorded as “significant darkening; also recorded: visible increase of human skin pigmentation”. The GSH/GSSG ratios entry (in the series with UACC257 melanoma cells; in series [2]) was “decreased in a dose-dependent manner” each time. The “cell death (BrdU ELISA)” value in the series with UACC 257 melanoma and in the series on WM26 primary melanocytes was “no significant induction of cell death” in each case. Moreover, the “pigmentation (eumelanin)” value in the series with Melan-A cells (10 mM) is listed as “increased pigmentation”.

With `CCCCCCCCCCCCCCCC(=O)SCCNC(=O)CCNC(=O)[C@H](O)C(C)(C)COP(=O)(O)OP(=O)(O)OC[C@H]1O[C@@H](n2cnc3c(N)ncnc32)[C@H](O)[C@@H]1OP(=O)(O)O` [Palmitoyl-CoA, palmitoyl CoA], the IC50 in the series on Melanocytes 1 (Melanocyte, 48 h) is above 10 µM; in the series on Melanocytes 2 (Melanocyte, 48 h), above 10 µM; in the series with Dermal Fibroblasts (Fibroblast, 48 h) it was above 10 µM; with Keratinocytes (Keratinocyte, 48 h), above 10 µM. In addition, in the series on human skin explants [1] (intradermal, human skin explants), the “skin darkening after intradermal treatment” value was “induced darkening”. Also, the “skin penetration after topical application” value in the series with human skin explants [1] (topical, human skin explants) is reported as “unable to penetrate”.

With `CC(=O)C(C)=O` [2,3 Butanedione, 2,3-butanedione], the IC50 is above 10 µM in the series on Melanocytes 1 (Melanocyte, 48 h); above 10 µM in the series with Melanocytes 2 (Melanocyte, 48 h); above 10 µM in the series with Dermal Fibroblasts (Fibroblast, 48 h); above 10 µM in the series with Keratinocytes (Keratinocyte, 48 h). Also, the results for the “microscopic pigmentation / eumelanin, Fontana-Masson staining” value in the series on human skin explants [1] and in the series on human skin explants [1] (listed as 2,3 BD) were “increase in eumelanin expression” and “significant microscopic pigmentation”, respectively. In addition, the “pigmentation compared with one-time UV-B treatment at 150 mJ/cm^2” value with human skin explants [1] (Fitzpatrick Type II skin patches, topical 4 days, lowest concentration 0.4% w/v (~47 mM)) is “darker than the pigmentation induced by a one-time UV-B treatment”. Moreover, the “pigmentation with increasing concentrations” value in the series on human skin explants [1] (Skin type 2 (Fitzpatrick Scale) explant, in DMSO) is recorded as “increase pigmentation”. In addition, the “lowest dose at which visible changes in skin pigmentation were observed” value in the series with human skin explants [1] (once per day for five consecutive days, all three skin types (Fitzpatrick I-II, III-IV, V-VI), lowest dose tested) was 1.2 µM. Moreover, the “human skin pigmentation (darkening)” value was “visible increase of human skin pigmentation” with human skin explants [1] (topical, human skin explants) and “significant darkening” with human skin explants [1] (topical, human skin explants, listed as 2,3 BD). Moreover, the “pigmentation (eumelanin)” value in the series on Melan-A cells (2 mM) and in the series with Melan-A cells (10 mM) was “increased pigmentation” in each case. The “CPD formation after UVB irradiation” value in the series on human skin (listed as 2, 3, butanedione) was “decrease in CPD”; with human skin (listed as 2,3BD), “protective role”. Moreover, the “CPD formation in the absence of UV radiation exposure” value with human skin (vs DMSO treated control) was “decrease in CPD formation”. For the same compound, the “inflammation or skin damage, H&E staining” value in the series on human skin explants [3] is reported as “no inflammation was observed”; in the series on human skin explants [3] (listed as 2,3 BD) it was “No significant inflammation or skin damage”.

The values are drawn from patent US9883996B2, “Methods and compositions for enhancing skin pigmentation” (THE GENERAL HOSPITAL CORPORATION, priority 2014, dated 2018).
